Data on three molecules can be found in patent US20170281806A1, “CHELATOR-TARGETING LIGAND CONJUGATES FOR CARDIOVASCULAR IMAGING” (priority 2009, published 2017).

Entries after “also recorded” stand apart in the source; their conditions may differ.

The subject of data set [1] is LAD zone. The data set is described as follows: Ischemic memory, acute model: SPECT, ex vivo imaging, gamma well counting. The class given is in vivo, dog. Conditions: for activity in the LAD zone relative to the normal LCx zone (gamma well counter), FIG. 3: after reperfusion. As for the experimental part: FIG. 2. Time line of protocol concerning ischemic memory. LAD flow was reduced by 75% tightening of a snare occluder in dogs to produce resting ischemia for 90 minutes followed by full perfusion. 99mTc-EC-glucosamine was injected 15 minutes after reflow with SPECT performed at one hour post injection.
In two dogs, LAD flow was reduced by 75% by tightening a snare occluder to produce resting ischemia for 90 minutes followed by full reperfusion. 99mTc-EC-glucosamine was injected 15 minutes after reflow with SPECT imaging performed at one hour post injection. No perfusion images were acquired in these studies, however, the perfusion image shown from another dog in the same position on the table is fused with the 99mTc-EC-glucosamine images for orientation purposes only (FIG. 2).
The heart slides were divided into 96 segments and counted in a gamma well counter for microsphere flow, Tl-201 activity, and 99mTc-EC-glucosamine uptake.

Data set [2] has as its system LV. The class given is in vivo, dog. The text has this: In two dogs with right atrial pacing at 180 beats per minute (bpm) for 5 weeks, there was significant deterioration of cardiac ejection fraction at the 5 week timepoint with ejection fraction reduced to less than 25% in both cases.
Data set [3] has as its system myocardium. The class given is in vivo. Conditions: dog. The protocol:
In this model, one of the major coronary arteries, either the left anterior descending (LAD) or left circumflex (LCx) coronary artery and all visible collateral vessels are tied off for 120 minutes, followed by complete reflow of the vessels. The chest is closed and the dogs are recovered and followed for up to 8 weeks with MR and SPECT imaging. […] Autoradiography and gamma well counting of 99mTc activity is not possible when using a 99mTc perfusion agent at the same time as 99mTc-EC-glucosamine. […] It is possible that the improved labeling efficiency in the 72 hour and 1 week scans resulted from changes that were made in the instructions for reconsistituting the 99mTc-EC-glucosamine kits. […] This dog will undergo further imaging at 4 weeks and again at 7.5/8 weeks as described above.

The subject of data set [4] is myocardium. Kind of data set: Ischemic memory, chronic model. As to conditions: LAD flow reduced 90% for 90 minutes. The class given is in vivo, dog. As for the experimental part: In a third dog, the protocol above was modified to examine 99mTc-EC-glucosamine uptake at later time points after reperfusion. In addition, the severity of the ischemic insult was increased such that LAD flow was reduced by 90% rather than 75% for 90 minutes. 99mTc-EC-glucosamine uptake was assessed at 48 hours and one week after reperfusion.

Take `[201Tl]` [Tl-201, thallium-201, reference compound]: in data set [1], the “activity in the LAD zone relative to the normal LCx zone (gamma well counter), FIG. 3” value is recorded as “slightly reduced”.

For “99mTc-ethylenedicysteine (EC) glucosamine [99mTc-EC-glucosamine]”, in data set [2] (dog, in vivo), the blood pool activity entry is “significant amount of blood pool activity”. Besides, in data set [3] (48 hours post myocardial infarction), the “uptake in the heart (SPECT)” value is reported as “small focal hot spot”. In data set [3] (LCx occlusion, 72 hours post infarction, imaging 2 hours after injection), the “uptake in the posterior wall (SPECT)” value is on record as “large amount of 99mTc-EC-glucosamine uptake”. Besides, the “uptake in the myocardium (SPECT)” value in data set [3] (baseline before infarction) is recorded as “no 99mTc-EC-glucosamine uptake observed in the myocardium; also recorded: no 99mTc-EC-glucosamine was observed in the myocardium”. Moreover, the “uptake by in vivo SPECT” value in data set [1] (LAD flow reduced 75% for 90 minutes, injected 15 minutes after reflow, SPECT one hour post injection) is on record as “focal 99mTc-EC-glucosamine hot spot in the apex of the heart; also recorded: focal hotspot”. Further, the “activity in the LAD zone relative to the normal LCx zone (gamma well counter), FIG. 3” value in data set [1] is reported as “significantly higher”. In data set [1] (flow reduced by 20-40% of normal), the “uptake in mildly ischemic areas” value is recorded as “enhanced 99mTc-EC-glucosamine uptake”. Besides, in data set [1] (flow reduced by 60-80% of normal), the “activity relative to the normal zone, central ischemic zone” value is recorded as “greater than 150%”. Besides, the “uptake in central and border zone ischemic areas” value in data set [1] (segments by degree of flow reduction during ischemia, FIG. 4) is “enhanced”. Further, the uptake after reperfusion entry in data set [4] (48 hours after reperfusion) is given as “uptake was observed”; in data set [4] (one week after reperfusion), “no uptake”.

`CCOCC[PH+](CCOCC)CC[PH+](CCOCC)CCOCC.CCOCC[PH+](CCOCC)CC[PH+](CCOCC)CCOCC.[O]=[99Tc]=[O]` [tetrofosmin, technetium Tc-99m tetrofosmin, reference compound]: the “uptake in the LV (SPECT)” value in data set [2] (dogs, right atrial pacing 180 bpm for 5 weeks) was “not completely homogenous”.
